Assay results as given in patent US11053246B2, “Substituted tricyclic compounds as FGFR inhibitors” (Incyte Corporation, priority 2012, dated 2021).

Experiments:
Format in all cases: biochemical
[1] = molecular target: FGFR2 (Homo sapiens (Human), UniProt P21802); test: FGFR Enzymatic Assay (FRET peptide phosphorylation), FGFR2; details: FGFR2 enzyme 0.01 nM, ATP 100 μM, 25° C., 1 hr
Procedure: (§1) The inhibitor potency of the exemplified compounds was measured in an enzyme assay that measures peptide phosphorylation using FRET measurements to detect product formation. Inhibitors were serially diluted in DMSO and a volume of 0.5 μL was transferred to the wells of a 384-well plate. For FGFR3, a 10 μL volume of FGFR3 enzyme (Millipore) diluted in assay buffer (50 mM HEPES, 10 mM MgCl2, 1 mM EGTA, 0.01% Tween-20, 5 mM DTT, pH 7.5) was added to the plate and pre-incubated for 5-10 minutes. Appropriate controls (enzyme blank and enzyme with no inhibitor) were included on the plate. […] The plate was incubated at 25° C. for 1 hr. […] The plate was allowed to equilibrate for ˜1 hr before scanning the wells on a PheraStar plate reader (BMG Labtech).
The enzymes were purchased from Millipore or Invitrogen.
(§2) GraphPad prism3 was used to analyze the data. The IC50 values were derived by fitting the data to the equation for a sigmoidal dose-response with a variable slope. Y=Bottom+(Top−Bottom)/(1+10^((Log IC50−X)*HillSlope)) where X is the logarithm of concentration and Y is the response.

[2] = molecular target: FGFR3 (Homo sapiens (Human), UniProt P22607); test: FGFR Enzymatic Assay (FRET peptide phosphorylation), FGFR3; details: FGFR3 enzyme (Millipore), ATP 140 μM, 25° C., 1 hr
Procedure: as §1, §2

[3] = molecular target: FGFR1 (Homo sapiens (Human), UniProt P11362); test: FGFR Enzymatic Assay (FRET peptide phosphorylation), FGFR1; details: FGFR1 enzyme 0.02 nM, ATP 210 μM, 25° C., 1 hr

Measured: IC50

Chain of FGFR1 (P11362 22-822): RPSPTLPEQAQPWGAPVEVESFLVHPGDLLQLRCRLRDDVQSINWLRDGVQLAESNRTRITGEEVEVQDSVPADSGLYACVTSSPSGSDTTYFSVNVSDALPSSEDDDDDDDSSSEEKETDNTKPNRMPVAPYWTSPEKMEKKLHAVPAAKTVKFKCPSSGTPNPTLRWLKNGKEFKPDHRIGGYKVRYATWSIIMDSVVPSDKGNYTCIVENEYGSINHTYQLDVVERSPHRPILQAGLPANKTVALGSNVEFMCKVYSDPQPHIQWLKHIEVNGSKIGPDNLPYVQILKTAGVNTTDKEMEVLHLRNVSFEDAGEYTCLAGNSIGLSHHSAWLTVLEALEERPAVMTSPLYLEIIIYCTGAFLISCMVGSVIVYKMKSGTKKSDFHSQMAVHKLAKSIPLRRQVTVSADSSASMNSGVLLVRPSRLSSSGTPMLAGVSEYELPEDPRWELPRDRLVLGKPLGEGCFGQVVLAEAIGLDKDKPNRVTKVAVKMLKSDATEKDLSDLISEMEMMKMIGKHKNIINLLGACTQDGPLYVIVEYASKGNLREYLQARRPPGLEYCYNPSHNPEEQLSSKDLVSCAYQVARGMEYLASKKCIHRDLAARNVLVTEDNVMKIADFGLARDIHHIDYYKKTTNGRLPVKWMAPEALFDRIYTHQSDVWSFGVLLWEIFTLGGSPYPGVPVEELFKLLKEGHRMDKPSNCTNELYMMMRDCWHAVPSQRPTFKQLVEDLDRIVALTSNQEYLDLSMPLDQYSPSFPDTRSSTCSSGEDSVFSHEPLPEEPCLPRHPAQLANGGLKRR
Chain of FGFR2 (P21802 22-821): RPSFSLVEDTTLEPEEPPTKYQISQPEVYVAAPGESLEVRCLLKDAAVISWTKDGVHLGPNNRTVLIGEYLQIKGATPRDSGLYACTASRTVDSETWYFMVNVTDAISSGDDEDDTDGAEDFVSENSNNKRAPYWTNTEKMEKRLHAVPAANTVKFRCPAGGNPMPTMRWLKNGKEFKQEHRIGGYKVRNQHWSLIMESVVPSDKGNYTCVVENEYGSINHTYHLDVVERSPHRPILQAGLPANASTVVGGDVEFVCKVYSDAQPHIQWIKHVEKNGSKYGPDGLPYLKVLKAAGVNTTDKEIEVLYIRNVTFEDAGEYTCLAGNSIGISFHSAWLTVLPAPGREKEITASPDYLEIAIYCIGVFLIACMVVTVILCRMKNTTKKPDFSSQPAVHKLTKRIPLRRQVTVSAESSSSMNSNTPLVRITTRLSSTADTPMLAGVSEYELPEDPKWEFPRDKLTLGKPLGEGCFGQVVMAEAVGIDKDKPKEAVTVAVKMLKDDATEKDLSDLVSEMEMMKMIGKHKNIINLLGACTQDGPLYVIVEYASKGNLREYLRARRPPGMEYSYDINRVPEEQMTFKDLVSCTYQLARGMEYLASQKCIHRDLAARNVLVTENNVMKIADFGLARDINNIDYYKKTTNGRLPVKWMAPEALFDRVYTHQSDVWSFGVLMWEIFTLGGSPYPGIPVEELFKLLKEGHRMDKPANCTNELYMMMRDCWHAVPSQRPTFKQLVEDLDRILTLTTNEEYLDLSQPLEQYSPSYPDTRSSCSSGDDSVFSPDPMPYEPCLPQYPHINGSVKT
Chain of FGFR3 (P22607 23-806): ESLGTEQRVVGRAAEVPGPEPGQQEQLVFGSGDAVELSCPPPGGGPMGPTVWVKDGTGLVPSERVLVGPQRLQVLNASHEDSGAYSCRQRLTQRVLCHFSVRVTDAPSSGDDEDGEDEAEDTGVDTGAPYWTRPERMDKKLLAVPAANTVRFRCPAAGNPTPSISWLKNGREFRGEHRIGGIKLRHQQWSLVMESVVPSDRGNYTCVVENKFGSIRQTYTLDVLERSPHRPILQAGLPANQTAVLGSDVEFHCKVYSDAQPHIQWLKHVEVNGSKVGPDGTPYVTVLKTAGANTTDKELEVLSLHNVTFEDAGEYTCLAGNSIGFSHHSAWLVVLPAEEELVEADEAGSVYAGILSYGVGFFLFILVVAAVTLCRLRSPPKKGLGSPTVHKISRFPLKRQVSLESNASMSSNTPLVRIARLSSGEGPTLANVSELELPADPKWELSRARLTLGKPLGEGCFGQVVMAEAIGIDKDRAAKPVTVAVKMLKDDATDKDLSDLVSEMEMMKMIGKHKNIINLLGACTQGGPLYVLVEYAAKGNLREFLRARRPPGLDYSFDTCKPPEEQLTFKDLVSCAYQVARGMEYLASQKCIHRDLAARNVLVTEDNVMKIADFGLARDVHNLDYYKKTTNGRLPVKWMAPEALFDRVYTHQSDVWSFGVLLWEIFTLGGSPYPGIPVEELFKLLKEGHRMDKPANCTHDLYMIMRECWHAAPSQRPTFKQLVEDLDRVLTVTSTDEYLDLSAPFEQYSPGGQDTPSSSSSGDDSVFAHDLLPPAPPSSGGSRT

CCN1C(=O)N(c2c(F)c(OC)cc(OC)c2Cl)Cc2cnc3c(c21)CC(=O)N3 [Example 63, 3-(2-chloro-6-fluoro-3,5-dimethoxyphenyl)-1-ethyl-3,4,7,9-tetrahydro-1H-pyrrolo[3′,2′:5,6]pyrido[4,3-d]pyrimidine-2,8-dione]
< 100 nM: all assays above
